Assay results as given in patent publication US20240409669A1, “Neutralizing Trivalent Protein-DNA Molecules (TRI-PDBODY) for SARS-COV-2 Infection Treatment” (priority 2021, published 2024).

Target: RBD of spike protein binding with ACE2 protein (Severe acute respiratory syndrome coronavirus 2, UniProt P0DTC2)

**Q.** Bovine serum albumin [BSA] was tested. Which “Competitive inhibition of ACE2 binding with RBD of spike” value did it give?
**A.** Its value is “non-competitive binding signal”.
